Tests used:
Oryza sativa [1] = test: Phytotoxicity against two-leaf stage Oryza sativa cv. Nipponbare (rice) planted zero cm depth at 5.0 g a.i/a measured after 3 weeks; type: organism-based; conditions: in vivo, 504 h
Oryza sativa [2] = test: Phytotoxicity against two-leaf stage Oryza sativa cv. Nipponbare (rice) planted 2 cm depth at 1 g a.i/a measured after 3 weeks; type: organism-based; conditions: in vivo, other, 504 h
Oryza sativa [3] = test: Phytotoxicity against two-leaf stage Oryza sativa cv. Nipponbare (rice) planted 2 cm depth at 2.5 g a.i/a measured after 3 weeks; type: organism-based; conditions: in vivo, 504 h
Oryza sativa [4] = test: Phytotoxicity against two-leaf stage Oryza sativa cv. Nipponbare (rice) planted 2 cm depth at 5.0 g a.i/a measured after 3 weeks; type: organism-based; conditions: in vivo, 504 h
Echinochloa oryzicola [5] = test: Herbicidal activity against Echinochloa oryzicola at 1 g a.i/a treated at 2.5 leaf stage measured after 3 weeks; type: functional
Echinochloa oryzicola [6] = test: Herbicidal activity against Echinochloa oryzicola at 2.5 g a.i/a treated at 2.5 leaf stage measured after 3 weeks; type: functional
Echinochloa oryzicola [7] = test: Herbicidal activity against Echinochloa oryzicola at 5.0 g a.i/a treated at 2.5 leaf stage measured after 3 weeks; type: functional
Echinochloa oryzicola [8] = test: Herbicidal activity against Echinochloa oryzicola at 1 g a.i/a treated at 1.5 leaf stage measured after 3 weeks; type: functional
Echinochloa oryzicola [9] = test: Herbicidal activity against Echinochloa oryzicola at 2.5 g a.i/a treated at 1.5 leaf stage measured after 3 weeks; type: functional
Echinochloa oryzicola [10] = test: Herbicidal activity against Echinochloa oryzicola at 5.0 g a.i/a treated at 1.5 leaf stage measured after 3 weeks; type: functional
Oryza sativa [11] = test: Phytotoxicity against two-leaf stage Oryza sativa cv. Nipponbare (rice) planted zero cm depth at 2.5 g a.i/a measured after 3 weeks; type: organism-based; conditions: in vivo, other, 504 h
Oryza sativa [12] = test: Phytotoxicity against two-leaf stage Oryza sativa cv. Nipponbare (rice) planted zero cm depth at 1 g a.i/a measured after 3 weeks; type: organism-based; conditions: in vivo, other, 504 h
[13] = test system: Schoenoplectiella juncoides; test: Pre-emergence herbicide activity against Schoenoplectiella juncoides under greenhouse condition at 1 g a.i/a measured after 3 weeks; type: functional
[14] = test system: Schoenoplectiella juncoides; test: Pre-emergence herbicide activity against Schoenoplectiella juncoides under greenhouse condition at 10 g a.i/a measured after 3 weeks; type: functional
Echinochloa oryzicola [15] = test: Pre-emergence herbicide activity against Echinochloa oryzicola under greenhouse condition at 1 g a.i/a measured after 3 weeks; type: functional
Echinochloa oryzicola [16] = test: Post-emergence herbicide activity against Echinochloa oryzicola under greenhouse condition at 1 g a.i/a treated at one-leaf stage measured after 3 weeks; type: functional
Echinochloa oryzicola [17] = test: Post-emergence herbicide activity against Echinochloa oryzicola under greenhouse condition at 10 g a.i/a treated at one-leaf stage measured after 3 weeks; type: functional
Echinochloa oryzicola [18] = test: Pre-emergence herbicide activity against Echinochloa oryzicola under greenhouse condition at 10 g a.i/a measured after 3 weeks; type: functional
[19] = test system: Schoenoplectiella juncoides; test: Post-emergence herbicide activity against Schoenoplectiella juncoides under greenhouse condition at 1 g a.i/a treated at one-leaf stage measured after 3 weeks; type: functional
[20] = test system: Schoenoplectiella juncoides; test: Post-emergence herbicide activity against Schoenoplectiella juncoides under greenhouse condition at 10 g a.i/a treated at one-leaf stage measured after 3 weeks; type: functional
Oryza sativa [21] = test: Phytotoxicity against two-leaf stage Oryza sativa cv. Nipponbare (rice) planted 2 cm depth assessed as crop injury at 2 g a.i/a followed by leaching of irrigation water for 3 days measured after 3 weeks post-treatment; type: organism-based; conditions: in vivo, other, 504 h
Oryza sativa [22] = test: Phytotoxicity against two-leaf stage Oryza sativa cv. Nipponbare (rice) planted 2 cm depth assessed as crop injury at 4 g a.i/a followed by leaching of irrigation water for 3 days measured after 3 weeks post-treatment; type: organism-based; conditions: in vivo, other, 504 h
[23] = Drug degradation in MeOH-water/KOH at 70 degC assessed as formation of 1-[1-(3,5-dichlorophenyl)-1-methylethyl]-4-methyl-3- phenyl-3-pyrrolin-2-one; type: physicochemical; conditions: buffer
Oryza sativa [24] = test: Phytotoxicity against two-leaf stage Oryza sativa cv. Nipponbare (rice) planted 2 cm depth assessed as crop injury at 3 g a.i/a followed by leaching of irrigation water for 3 days measured after 3 weeks post-treatment; type: organism-based; conditions: in vivo, other, 504 h
Oryza sativa [25] = test: Phytotoxicity against two-leaf stage Oryza sativa cv. Nipponbare (rice) planted 2 cm depth assessed as crop injury at 6 g a.i/a followed by leaching of irrigation water for 3 days measured after 3 weeks post-treatment; type: organism-based; conditions: in vivo, other, 504 h

| Structure (SMILES) | Activity (Oryza sativa [1]) | Activity (Oryza sativa [2]) | Activity (Oryza sativa [3]) | Activity (Oryza sativa [4]) | Activity (Echinochloa oryzicola [5]) | Activity (Echinochloa oryzicola [6]) | Activity (Echinochloa oryzicola [7]) | Activity (Echinochloa oryzicola [8]) | Activity (Echinochloa oryzicola [9]) | Activity (Echinochloa oryzicola [10]) | Activity (Oryza sativa [11]) | Activity (Oryza sativa [12]) | Activity [13] | Activity [14] | Activity (Echinochloa oryzicola [15]) | Activity (Echinochloa oryzicola [16]) | Activity (Echinochloa oryzicola [17]) | Activity (Echinochloa oryzicola [18]) | Activity [19] | Activity [20] | other results |
| --- | --- | --- | --- | --- | --- | --- | --- | --- | --- | --- | --- | --- | --- | --- | --- | --- | --- | --- | --- | --- | --- |
| C=C1CN(C(C)(C)c2cc(Cl)cc(Cl)c2)C(=O)C1(C(=O)OC)c1ccccc1 (stereo unspecified) | 99% | 0% | 0% | 0% | 40% | 99% | 99% | 99% | 99% | 100% | 95% | 70% | – | – | – | – | – | – | – | – | – |
| COC(=O)C1(c2ccccc2)C(=O)N(C(C)(C)c2cc(Cl)nc(Cl)c2)C=C1C (stereo unspecified) | 80% | 0% | 0% | 0% | 50% | 90% | 98% | 75% | 99% | 99% | 70% | 30% | 100% | 100% | 100% | 50.1% | 100% | 100% | 87.6% | 87.6% | – |
| COC(=O)C1(c2ccccc2)C(=O)N(C(C)(C)c2cc(Cl)cc(Cl)c2)C=C1CO (stereo unspecified) | 65% | 0% | 0% | 0% | 30% | 75% | 99% | 97% | 99% | 99% | 60% | 0% | 87.6% | 100% | 100% | 87.6% | 100% | 100% | 87.6% | 87.6% | – |
| C=C1CN(C(C)(C)c2cc(Cl)cc(Cl)c2)C(=O)C1(C(=O)OC)c1ccccc1F (stereo unspecified) | 98% | – | 0% | 0% | 65% | 95% | 95% | 99% | 99% | 99% | 80% | – | – | – | – | – | – | – | – | – | – |
| COC(=O)C1(c2ccccc2F)C(=O)N(C(C)(C)c2cc(Cl)cc(Cl)c2)C=C1C (stereo unspecified) | 30% | 0% | 0% | 0% | 80% | 90% | 100% | 99% | 99% | 100% | 5% | 0% | 0.1% | 100% | 100% | 100% | 100% | 100% | 0.1% | 87.6% | Activity (Oryza sativa [21]): 0%; Activity (Oryza sativa [22]): 20% |
| COC(=O)C1(c2ccccc2)C(=O)N(C(C)(C)c2cc(Cl)cc(Cl)c2)C=C1C (stereo unspecified) | 80% | 0% | 0% | 0% | 60% | 95% | 98% | 98% | 98% | 100% | 10% | 0% | 100% | 100% | 100% | 87.6% | 100% | 100% | 0.1% | 87.6% | Stability [23]: Unstable; Activity (Oryza sativa [24]): 0%; Activity (Oryza sativa [25]): 7% |
| COCC1=CN(C(C)(C)c2cc(Cl)cc(Cl)c2)C(=O)C1(C(=O)OC)c1ccccc1 (stereo unspecified) | 98% | – | 0% | 0% | – | 65% | 98% | – | 99% | 100% | 30% | – | 50.1% | 100% | 100% | 75.1% | 100% | 100% | 87.6% | 87.6% | – |
| COC(=O)C1(c2ccccc2)C(=O)N(C(C)(C)c2cccc(Cl)c2)C=C1C (stereo unspecified) | 98% | 0% | 0% | 0% | 40% | 90% | 99% | 99% | 100% | 100% | 95% | 80% | 50.1% | 100% | 100% | 50.1% | 100% | 100% | 87.6% | 87.6% | – |
| CC1=C(c2ccccc2)C(=O)N(C(C)(C)c2cc(Cl)cc(Cl)c2)C1 | 98% | – | 0% | 0% | 40% | 95% | 98% | 60% | 95% | 98% | 90% | – | 100% | 100% | 100% | 87.6% | 100% | 100% | 75.1% | 87.6% | – |
